# Source: US11535632B2, “Solid forms of an S1P-receptor modulator” (ESCAPE Bio, Inc., priority 2019, dated 2022)
# Experiments:
# [1] = Room temperature equilibrium solubility in aqueous suspensions; assay type: physicochemical; conditions: listed as Compound 1, Form B; for Total drug in solution: room temperature equilibrium, HPLC of supernatant
# [2] = Hygroscopicity evaluation by DVS at 25° C.; assay type: physicochemical
# Experimental: Hygroscopicity of Compound 1, Form A and Compound 1, Form B was evaluated by DVS at 25° C.
compound,measurement,setting,value
"O=C(O)[C@H]1C[C@@H](N2CCc3oc(-c4ccc(OCc5ccc(Cl)cc5)cc4)nc3C2)C1 [Form B, (1s,3s)-3-(2-(4-((4-chlorobenzyl)oxy)phenyl)-6,7-dihydrooxazolo[4,5-c]pyridin-5(4H)-yl)cyclobutane-1-carboxylic acid]",Total drug in solution,[1]; 0.2% HPMC aqueous suspension,<1 µg/mL
same,pH,[1]; 0.2% HPMC aqueous suspension,6.7
same,Total drug in solution,[1]; 0.25% SLS aqueous suspension,7.8 µg/mL
same,pH,[1]; 0.25% SLS aqueous suspension,6.0
same,Total drug in solution,[1]; 20% HP-BCD aqueous suspension,74.2 µg/mL
same,pH,[1]; 20% HP-BCD aqueous suspension,6.1
same,DVS Desorp. (%),"[2]; 0% RH, 1st Desorp.",0.01%
same,DVS Sorp. (%),"[2]; 0% RH, 2nd Sorp.",0.01%
same,DVS Desorp. (%),"[2]; 10% RH, 1st Desorp.",0.95%
same,DVS Sorp. (%),"[2]; 10% RH, 2nd Sorp.",0.65%
same,DVS Desorp. (%),"[2]; 20% RH, 1st Desorp.",1.03%
same,DVS Sorp. (%),"[2]; 20% RH, 2nd Sorp.",0.96%
same,DVS Desorp. (%),"[2]; 30% RH, 1st Desorp.",1.08%
same,DVS Sorp. (%),"[2]; 30% RH, 2nd Sorp.",1.00%
same,DVS Desorp. (%),"[2]; 40% RH, 1st Desorp.",1.14%
same,DVS Sorp. (%),"[2]; 40% RH, 1st Sorp.",1.09%
same,DVS Desorp. (%),"[2]; 40% RH, 2nd Desorp.",1.06%
same,DVS Sorp. (%),"[2]; 40% RH, 2nd Sorp.",1.03%
same,DVS Desorp. (%),"[2]; 50% RH, 1st Desorp.",1.18%
same,DVS Sorp. (%),"[2]; 50% RH, 1st Sorp.",1.10%
same,DVS Desorp. (%),"[2]; 50% RH, 2nd Desorp.",1.11%
same,DVS Sorp. (%),"[2]; 50% RH, 2nd Sorp.",1.06%
same,DVS Desorp. (%),"[2]; 60% RH, 1st Desorp.",1.21%
same,DVS Sorp. (%),"[2]; 60% RH, 1st Sorp.",1.14%
same,DVS Desorp. (%),"[2]; 60% RH, 2nd Desorp.",1.10%
same,DVS Sorp. (%),"[2]; 60% RH, 2nd Sorp.",1.09%
same,DVS Desorp. (%),"[2]; 70% RH, 1st Desorp.",1.26%
same,DVS Sorp. (%),"[2]; 70% RH, 1st Sorp.",1.18%
same,DVS Desorp. (%),"[2]; 70% RH, 2nd Desorp.",1.13%
same,DVS Sorp. (%),"[2]; 70% RH, 2nd Sorp.",1.12%
same,DVS Desorp. (%),"[2]; 80% RH, 1st Desorp.",1.28%
same,DVS Sorp. (%),"[2]; 80% RH, 1st Sorp.",1.22%
same,DVS Desorp. (%),"[2]; 80% RH, 2nd Desorp.",1.18%
same,DVS Sorp. (%),"[2]; 80% RH, 2nd Sorp.",1.17%
same,DVS Desorp. (%),"[2]; 90% RH, 1st Desorp.",1.33%
same,DVS Sorp. (%),"[2]; 90% RH, 1st Sorp.",1.29%
same,DVS Desorp. (%),"[2]; 90% RH, 2nd Desorp.",1.24%
same,DVS Sorp. (%),"[2]; 90% RH, 2nd Sorp.",1.22%
same,DVS Desorp. (%),"[2]; 95% RH, 1st Desorp.",1.38%
same,DVS Sorp. (%),"[2]; 95% RH, 1st Sorp.",1.38%
same,DVS Desorp. (%),"[2]; 95% RH, 2nd Desorp.",1.30%
same,DVS Sorp. (%),"[2]; 95% RH, 2nd Sorp.",1.30%
same,Hygroscopicity based on DVS results,"[2]; listed as Compound 1, Form B",slightly hygroscopic
same,XRPD after DVS test,"[2]; listed as Compound 1, Form B",no form change
